# Experimental data as given in patent publication US6162806A, “Active oxygen scavengers containing pterin derivatives” (Artemis, Inc., priority 1996, dated 2000).
# Key:
# [1] = literature; cited from earlier work
# [2] = Active oxygen scavenging activity, active oxygen derived from potassium superoxide in DMSO (electron spin resonance spectroscopy); conditions: ESR at 77K, vs no addition
# Description: Potassium superoxide (KO2) (28 mg) was added to dimethyl sulfoxide (DMSO) (20 ml) to prepare a saturated solution so that active oxygens were generated in DMSO. As a standard substance, 2,2,6,6-tetramethylpiperidine-N-oxide (TEMPO) was used. TEMPO was dissolved in DMSO in the concentrations of 0.1, 0.3, 0.5, 0.7, 1, 1.2, or 1.5 mM. The electron spin resonance signals obtained (measured at 77K) were integrated to prepare a standard curve.
# [3] = tested on: active oxygens generated by PMA-stimulated polymorphonuclear leukocytes (PMN); assay: Active oxygen scavenging activity, PMN-PMA system (CLA chemiluminescence); assay type: cell-based, human (healthy adult); conditions: 37° C., approximately 10 minutes
# Description: Venous blood (10 ml) was taken from a healthy adult, and polymorphonuclear leukocytes (abbreviated to PMN) were isolated therefrom. The leukocytes were suspended in HBSS (Hanks' balanced salt solution) to approximately 1×10^6 cells/ml. 2-Methyl-6-phenyl-3,7-dihydroimidazo-(1,2-a)-pyrazin-3-on (hereinafter referred to as CLA) as a chemiluminescent compound, that is, a compound which may generate chemiluminescence due to the presence of active oxygens, was dissolved in a phosphate buffered saline (hereinafter referred to as PBS) to the concentration of 50 μM. Phorbol myristate acetate (abbreviated to PMA) as a polymorphonuclear leukocyte stimulating agent, that is, a compound which may generate active oxygens by stimulating polymorphonuclear leukocytes, was dissolved in PBS to the concentration of 20 μg/ml. The PMN suspension, the CLA solution, and the PMA solution were cooled with ice for storage until use for measurement.
# 6-Formyl-pterin as the active ingredient of the active oxygen scavenger according to the present invention was dissolved in PBS to the concentrations of 100 μM, 250 μM, or 500 μM, and then warmed to 37° C. before measurement. PBS as a control was also warmed to 37° C. before measurement.
# To polymorphonuclear leukocytes isolated from 2 ml of the PMN suspension by centrifugation, the 6-formyl-pterin solutions of various concentrations or PBS were added to adjust total volume to 1930 μl. The mixtures were poured into test tubes and warmed at 37° C. for 15 minutes. After adding the CLA solution (50 μl), the mixture was placed in a chemiluminescence reader and the measurement of an amount of chemiluminescence was started. After 1 minute from the beginning of the measurement, the PMA solution (20 μl) was injected into the test tube with a syringe. The measurement was performed at 37° C. for approximately 10 minutes while monitoring every 10 seconds.
# FIG. 1 is a graph showing a total chemiluminescence amount obtained by accumulating chemiluminescence amounts measured every 10 seconds.
# [4] = tested on: delayed neuronal death (DND) in the cerebral hippocampus area; assay: Suppression of delayed neuronal death in transient cerebral ischemia model gerbils (MAP2 staining of hippocampus); assay type: in vivo, gerbil; conditions: 50 mM in physiological saline (1 ml) intraperitoneally 30 minutes after resumption of bloodstream, after 1 week
# Description: A neck of each gerbil (body weigh=approximately 80 g) under a general anesthesia was incised. Ambilateral carotids were visually ligated with clips to cut off a bloodstream. After 5 minutes, the bloodstream was resumed, and the incision was sutured. After 30 minutes from the resumption of the bloodstream, physiological saline (1 ml) was intraperitoneally administered to a control group of the gerbils, whereas 50 mM of 6-formyl-pterin in physiological saline (1 ml) was intraperitoneally administered to an administering group of the gerbils. Thereafter, gerbils came out from anesthesia and then were bred for 1 week. Then, a brain was extirpated from each gerbil under a general anesthesia. Tissue slices were prepared from the brain and stained with microtubule-associated protein 2 (MAP2) which can specifically stain neurons, to evaluate the degree of delayed neuronal death (DND) in the cerebral hippocampus area.
# FIG. 3 is a photomicrograph of a slice of a cerebral hippocampus tissue from a completely normal gerbil which had not encountered hemostasis, FIG. 4 is a photomicrograph of a slice of a cerebral hippocampus tissue from the control group, and FIG. 5 is a photomicrograph of a slice of a cerebral hippocampus tissue from the 6-formyl-pterin-administering group. […]
# rats = assay: Acute toxicity, intravenous; assay type: in vivo, rat; conditions: 6 mg/kg intravenously; 10 rats; observed for 3 months
# Text: Acute toxicity of 6-formyl-pterin was examined, using rats.
# [5] = background art; cited from earlier work
SMILES,antioxidative activity against active oxygens [1],amount of active oxygens generated from KO2 ([2]; 1 mM 6-formyl-pterin),amount of active oxygens generated from KO2 ([2]; from 0.1 mM 6-formyl-pterin),"amount of chemiluminescence, i.e., the amount of active oxygens ([3]; 100 μM, vs PBS control (FIG. 1, curve b))","amount of chemiluminescence, i.e., the amount of active oxygens ([3]; 250 μM, vs PBS control (FIG. 1, curve c))","amount of chemiluminescence, i.e., the amount of active oxygens ([3]; 500 μM, vs PBS control (FIG. 1, curve d))",delayed neuronal death [4],state of neurons in cerebral hippocampus tissue slice (FIG. 5) ([4]; control: neurons completely dropped),death (acute toxicity) (rats),teratogenicity [5]
"Nc1nc2ncc([C@H](O)[C@H](O)CO)nc2c(=O)[nH]1 [NP, 2-amino-4-oxo-6-(D-erythro-1',2',3'-trihydroxypropyl)-pteridine]",antioxidative activity against active oxygens,,,,,,,,,
Nc1nc2ncc(C=O)nc2c(=O)[nH]1 [6-formyl-pterin],,almost disappeared,lowered,significantly suppressed,almost disappeared,almost disappeared,suppressed,many neurons were living,No death was observed,
"Nc1nc2c(c(=O)[nH]1)NC([C@H](O)[C@H](O)CO)CN2 (some centres unmarked) [NPH4, 5,6,7,8-tetrahydroneopterin]",potent antioxidative activity,,,,,,,,,exhibits teratogenicity
